This is an account of results in paper PMC7615363 (2023).

For test [1], the system named is T5R8/359 (RNA, aptamer) GGAUGAGCGACGCUGGAAGGAAGAAAAUGCAGAAAAAAAGAAAAAAAUGUCUGGGUCUGGCGACUGCUC
The experiment in a line: isothermal titration calorimetry. The conditions noted are these: 100 mM NaCl, 5 mM MgCl2, 50 mM HEPES, pH 7.6, 25 °C. In general terms: In ITC the heat of successive injections is recorded.

Test [2] relates to T8R16/409 (RNA, aptamer) GCCUGCAAGUGCGACGAAUGGGAAAUAGCAAAAGAAAACAGAGACACCGACAUGUUAGAGACCACCGACGUG
As to the kind of experiment: isothermal titration calorimetry. The following applies: 100 mM NaCl, 5 mM MgCl2, 50 mM HEPES, pH 7.6, 25 °C.

The mark [3] stands for this setting: RNA 6 μM, nucleotide 100–200 μM in syringe.

On to `Nc1nc2c(ncn2[C@@H]2O[C@H](COP(=O)(O)OP(=O)(O)OP(=O)(O)O)[C@@H](O)[C@H]2O)c(=O)[nH]1`, for which, in test [1] (setting [3]), the binding result is given as “no”. Moreover, the Kd in test [2] (one-site fit) is ~ 0.5 μM.
As to `Nc1ncnc2c1ncn2[C@@H]1O[C@H](COP(=O)(O)OP(=O)(O)OP(=O)(O)O)[C@@H](O)[C@H]1O`, the Kd in test [1] (one-site fit with stoichiometry constrained to 0.5) is ~ 7 μM. For the same molecule, the binding result in test [2] (setting [3]) is “no”.
